Molecules are shown by their SMILES.

The target in assay [1] is T1, Ephrin type-B receptor 4 (Homo sapiens) (UniProt P54760).
T1 sequence (whole entry): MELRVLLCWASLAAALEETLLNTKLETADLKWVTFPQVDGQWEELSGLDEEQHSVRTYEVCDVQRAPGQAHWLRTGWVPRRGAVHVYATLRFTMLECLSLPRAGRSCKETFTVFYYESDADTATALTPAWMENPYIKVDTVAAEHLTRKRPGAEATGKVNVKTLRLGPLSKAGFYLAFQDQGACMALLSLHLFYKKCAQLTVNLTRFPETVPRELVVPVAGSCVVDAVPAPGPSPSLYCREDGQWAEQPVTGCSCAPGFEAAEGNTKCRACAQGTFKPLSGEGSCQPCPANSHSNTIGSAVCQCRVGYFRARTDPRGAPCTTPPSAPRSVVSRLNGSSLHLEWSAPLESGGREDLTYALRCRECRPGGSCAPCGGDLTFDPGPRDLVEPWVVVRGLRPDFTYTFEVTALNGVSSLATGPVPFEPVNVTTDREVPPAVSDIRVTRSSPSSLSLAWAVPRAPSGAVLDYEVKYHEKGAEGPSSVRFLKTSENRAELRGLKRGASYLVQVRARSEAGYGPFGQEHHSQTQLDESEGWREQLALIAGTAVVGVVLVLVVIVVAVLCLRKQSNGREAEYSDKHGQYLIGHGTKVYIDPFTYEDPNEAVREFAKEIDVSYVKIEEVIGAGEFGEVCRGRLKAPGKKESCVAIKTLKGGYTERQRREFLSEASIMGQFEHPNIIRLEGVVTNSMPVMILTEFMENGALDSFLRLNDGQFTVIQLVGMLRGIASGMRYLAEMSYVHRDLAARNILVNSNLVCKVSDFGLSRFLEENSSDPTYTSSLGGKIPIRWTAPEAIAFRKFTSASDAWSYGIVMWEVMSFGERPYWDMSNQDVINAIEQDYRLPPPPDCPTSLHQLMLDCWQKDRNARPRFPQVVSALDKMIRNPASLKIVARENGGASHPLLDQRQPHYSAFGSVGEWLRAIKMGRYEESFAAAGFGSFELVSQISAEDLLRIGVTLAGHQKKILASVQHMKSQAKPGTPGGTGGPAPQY
The settings on record: at 10 µM.

The target of assay [2] is Protein kinase C delta type (Homo sapiens) (UniProt Q05655). The experiment in a line: Selectivity interaction (KinomeScan (DiscoverX)) EUB0000666a PRKCD. The following applies: at 10 µM.
The target of assay [3] is Serine/threonine-protein kinase MRCK alpha (Homo sapiens) (UniProt Q5VT25). The experiment in a line: Selectivity interaction (KinomeScan (DiscoverX)) EUB0000666a CDC42BPA. The following applies: at 10 µM.
Assay [4] concerns the target Insulin-like growth factor 1 receptor (Homo sapiens, UniProt P08069). The experiment in a line: Selectivity interaction (KinomeScan (DiscoverX)) EUB0000229b IGF1R. The settings on record: at 10 µM.
In assay [5] the target is BDNF/NT-3 growth factors receptor (Homo sapiens) (UniProt Q16620). The experiment in a line: Selectivity interaction (KinomeScan (DiscoverX)) EUB0000655a NTRK2. The following applies: at 10 µM.
The target in assay [6] is T1, Ephrin type-B receptor 4 (Homo sapiens). The experiment in a line: Selectivity interaction (KinomeScan (DiscoverX)) EUB0001079a EPHB4. The settings on record: at 1 µM.
For assay [7], the target named is T2, Dual specificity mitogen-activated protein kinase kinase 3 (Homo sapiens) (UniProt P46734).
T2 sequence (whole entry): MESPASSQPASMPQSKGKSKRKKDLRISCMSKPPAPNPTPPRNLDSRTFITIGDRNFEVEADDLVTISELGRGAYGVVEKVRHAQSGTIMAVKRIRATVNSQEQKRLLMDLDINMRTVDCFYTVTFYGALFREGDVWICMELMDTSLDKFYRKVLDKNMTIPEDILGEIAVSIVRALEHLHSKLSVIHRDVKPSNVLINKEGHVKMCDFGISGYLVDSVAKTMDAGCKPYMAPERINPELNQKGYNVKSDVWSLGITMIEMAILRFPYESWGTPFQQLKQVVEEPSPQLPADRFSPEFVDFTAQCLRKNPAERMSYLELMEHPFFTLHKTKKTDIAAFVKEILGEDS
The experiment in a line: Selectivity interaction (ActivX KiNativ screen (kinase selectivity in THP-1 cell lysates)) EUB0000639a MAP2K3. The format is subcellular. The settings on record: lysate.

Assay [8] has as its target Phosphatidylinositol 4-phosphate 3-kinase C2 domain-containing subunit beta (Homo sapiens) (UniProt O00750). The experiment in a line: Selectivity interaction (Kinase panel (Invitrogen)) EUB0000639a PIK3C2B. The following applies: at 200 nM.
The target in assay [9] is Insulin receptor-related protein (Homo sapiens) (UniProt P14616). The experiment in a line: Selectivity interaction (Kinase screening (Nanosyn)) EUB0000604a INSRR.
Insulin receptor-related protein (Homo sapiens), sequence (P14616 27-742 limits assumed): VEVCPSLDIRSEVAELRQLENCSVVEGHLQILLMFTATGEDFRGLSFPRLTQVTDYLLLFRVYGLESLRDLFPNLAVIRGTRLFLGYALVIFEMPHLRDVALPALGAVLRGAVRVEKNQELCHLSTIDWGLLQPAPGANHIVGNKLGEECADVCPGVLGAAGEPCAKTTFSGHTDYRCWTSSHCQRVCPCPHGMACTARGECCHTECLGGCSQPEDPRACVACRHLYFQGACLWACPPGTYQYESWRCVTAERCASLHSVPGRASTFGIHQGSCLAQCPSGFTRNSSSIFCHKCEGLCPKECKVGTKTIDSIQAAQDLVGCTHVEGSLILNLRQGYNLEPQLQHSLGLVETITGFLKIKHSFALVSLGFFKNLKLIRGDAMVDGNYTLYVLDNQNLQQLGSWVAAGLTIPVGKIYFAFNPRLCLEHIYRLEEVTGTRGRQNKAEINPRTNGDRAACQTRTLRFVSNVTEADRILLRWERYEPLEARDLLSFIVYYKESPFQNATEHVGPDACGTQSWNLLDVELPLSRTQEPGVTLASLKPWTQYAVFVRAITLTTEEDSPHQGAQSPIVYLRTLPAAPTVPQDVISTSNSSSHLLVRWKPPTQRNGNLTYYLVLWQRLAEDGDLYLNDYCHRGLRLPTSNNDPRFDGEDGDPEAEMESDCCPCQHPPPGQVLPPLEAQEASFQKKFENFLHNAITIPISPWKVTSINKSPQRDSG
Insulin receptor-related protein (Homo sapiens), sequence (P14616 747-1297 limits assumed): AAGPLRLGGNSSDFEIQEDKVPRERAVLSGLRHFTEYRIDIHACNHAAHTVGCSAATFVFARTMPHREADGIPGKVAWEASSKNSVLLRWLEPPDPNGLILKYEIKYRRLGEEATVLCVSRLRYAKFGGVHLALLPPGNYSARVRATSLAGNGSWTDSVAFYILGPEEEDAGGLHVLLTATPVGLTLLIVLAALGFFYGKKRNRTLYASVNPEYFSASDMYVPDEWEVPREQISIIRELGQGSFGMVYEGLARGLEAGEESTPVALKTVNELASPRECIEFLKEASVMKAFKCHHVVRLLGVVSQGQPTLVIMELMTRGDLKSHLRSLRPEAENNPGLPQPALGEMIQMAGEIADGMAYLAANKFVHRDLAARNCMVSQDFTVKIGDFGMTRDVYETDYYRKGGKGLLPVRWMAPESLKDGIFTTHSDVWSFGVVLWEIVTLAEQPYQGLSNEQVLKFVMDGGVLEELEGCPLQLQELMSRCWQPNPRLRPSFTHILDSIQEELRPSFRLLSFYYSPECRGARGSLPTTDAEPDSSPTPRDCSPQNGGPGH
Assay [10] has as its target [Pyruvate dehydrogenase (acetyl-transferring)] kinase isozyme 1, mitochondrial (Homo sapiens, UniProt Q15118). The experiment in a line: Selectivity interaction (Kinase screening (Upstate/Millipore)) EUB0000604a PDK1.
Assay [11] concerns the target Ribosomal protein S6 kinase alpha-5 (Homo sapiens) (UniProt O75582). The experiment in a line: Selectivity interaction (Kinase screening (Nanosyn)) EUB0000604a RPS6KA5.
The target in assay [12] is Serine/threonine-protein kinase SIK3 (Homo sapiens) (UniProt Q9Y2K2). The experiment in a line: Selectivity interaction (ProQinase) EUB0000171b SIK3.
Serine/threonine-protein kinase SIK3 (Homo sapiens), sequence (Q9Y2K2 whole entry, looked up): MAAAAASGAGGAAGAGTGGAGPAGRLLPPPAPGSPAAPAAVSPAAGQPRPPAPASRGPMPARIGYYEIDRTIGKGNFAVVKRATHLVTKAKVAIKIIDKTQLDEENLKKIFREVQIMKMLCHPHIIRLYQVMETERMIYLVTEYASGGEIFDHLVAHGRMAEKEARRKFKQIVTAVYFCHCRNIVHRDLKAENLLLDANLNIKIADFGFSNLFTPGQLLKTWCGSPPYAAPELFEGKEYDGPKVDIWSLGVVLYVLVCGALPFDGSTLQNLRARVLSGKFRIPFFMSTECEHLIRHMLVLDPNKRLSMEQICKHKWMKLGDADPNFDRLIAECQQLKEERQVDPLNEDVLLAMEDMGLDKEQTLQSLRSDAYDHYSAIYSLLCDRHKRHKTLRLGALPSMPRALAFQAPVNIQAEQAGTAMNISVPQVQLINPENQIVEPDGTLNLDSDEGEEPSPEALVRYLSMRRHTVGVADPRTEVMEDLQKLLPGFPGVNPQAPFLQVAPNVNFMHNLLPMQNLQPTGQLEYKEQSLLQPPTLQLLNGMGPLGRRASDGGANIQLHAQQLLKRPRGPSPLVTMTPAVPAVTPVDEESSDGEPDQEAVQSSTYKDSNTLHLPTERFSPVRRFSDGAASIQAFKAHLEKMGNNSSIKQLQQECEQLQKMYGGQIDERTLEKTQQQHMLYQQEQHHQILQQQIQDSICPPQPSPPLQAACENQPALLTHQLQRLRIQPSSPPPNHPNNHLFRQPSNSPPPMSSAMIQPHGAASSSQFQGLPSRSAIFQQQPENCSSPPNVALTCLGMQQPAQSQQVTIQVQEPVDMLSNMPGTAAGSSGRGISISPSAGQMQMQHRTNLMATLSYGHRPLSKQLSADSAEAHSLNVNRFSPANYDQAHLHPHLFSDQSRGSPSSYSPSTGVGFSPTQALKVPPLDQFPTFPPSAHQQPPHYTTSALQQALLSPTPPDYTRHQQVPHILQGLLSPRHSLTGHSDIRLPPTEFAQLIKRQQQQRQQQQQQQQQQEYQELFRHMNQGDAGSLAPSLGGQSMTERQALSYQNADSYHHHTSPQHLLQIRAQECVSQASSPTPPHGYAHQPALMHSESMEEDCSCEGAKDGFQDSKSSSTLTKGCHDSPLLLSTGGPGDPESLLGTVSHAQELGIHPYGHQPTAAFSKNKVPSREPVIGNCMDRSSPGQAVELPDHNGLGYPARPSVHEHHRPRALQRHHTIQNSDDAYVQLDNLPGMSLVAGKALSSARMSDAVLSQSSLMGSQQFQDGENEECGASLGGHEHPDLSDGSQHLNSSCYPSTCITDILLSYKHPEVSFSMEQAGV
For assay [13], the target named is Transcription intermediary factor 1-alpha (Homo sapiens) (UniProt O15164). The experiment in a line: Selectivity interaction (Bromodomain panel (DSF asssay)) EUB0000270b TRIM24.
Transcription intermediary factor 1-alpha (Homo sapiens), sequence (O15164 whole entry): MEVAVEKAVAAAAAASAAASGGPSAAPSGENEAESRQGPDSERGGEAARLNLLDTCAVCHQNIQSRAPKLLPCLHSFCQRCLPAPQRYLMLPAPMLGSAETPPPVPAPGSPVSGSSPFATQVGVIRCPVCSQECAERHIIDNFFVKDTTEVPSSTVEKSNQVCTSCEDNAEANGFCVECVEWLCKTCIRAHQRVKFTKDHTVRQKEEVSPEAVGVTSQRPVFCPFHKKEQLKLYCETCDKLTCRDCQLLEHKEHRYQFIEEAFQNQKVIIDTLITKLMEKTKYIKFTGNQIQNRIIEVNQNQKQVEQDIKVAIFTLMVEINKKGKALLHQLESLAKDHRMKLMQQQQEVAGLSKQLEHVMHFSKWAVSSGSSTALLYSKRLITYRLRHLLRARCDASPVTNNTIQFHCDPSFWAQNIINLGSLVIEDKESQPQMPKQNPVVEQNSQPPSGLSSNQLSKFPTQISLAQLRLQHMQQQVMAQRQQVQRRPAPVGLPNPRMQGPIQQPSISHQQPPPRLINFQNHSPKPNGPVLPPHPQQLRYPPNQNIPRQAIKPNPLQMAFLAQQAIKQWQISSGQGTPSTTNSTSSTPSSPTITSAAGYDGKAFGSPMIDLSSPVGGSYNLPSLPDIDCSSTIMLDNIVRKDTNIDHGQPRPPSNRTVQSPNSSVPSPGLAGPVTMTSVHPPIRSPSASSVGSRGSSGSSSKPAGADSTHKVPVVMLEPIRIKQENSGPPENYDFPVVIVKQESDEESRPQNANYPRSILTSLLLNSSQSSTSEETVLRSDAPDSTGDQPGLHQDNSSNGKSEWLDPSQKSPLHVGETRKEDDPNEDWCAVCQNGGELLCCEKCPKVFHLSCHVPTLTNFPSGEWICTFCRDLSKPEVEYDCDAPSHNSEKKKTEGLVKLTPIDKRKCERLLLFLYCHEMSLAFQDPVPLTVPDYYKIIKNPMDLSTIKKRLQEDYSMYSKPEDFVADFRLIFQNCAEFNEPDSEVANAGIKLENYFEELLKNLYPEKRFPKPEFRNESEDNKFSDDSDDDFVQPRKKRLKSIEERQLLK
For assay [14], the target named is Histone acetyltransferase KAT2A (Homo sapiens) (UniProt Q92830). The experiment in a line: Selectivity interaction (Bromodomain panel (DSF asssay)) EUB0000270b KAT2A.
The target of assay [15] is Phosphatidylinositol 4-kinase beta (Homo sapiens, UniProt Q9UBF8). The experiment in a line: Selectivity interaction (KinomeScan (DiscoverX)) EUB0000618a PI4KB. The following applies: at 10 µM.
In assay [16] the target is Tyrosine-protein kinase Fyn (Homo sapiens) (UniProt P06241). The experiment in a line: Selectivity interaction (Upstate Kinase Profiler service (Millipore)) EUB0000056c FYN. The settings on record: at 1 µM.
Tyrosine-protein kinase Fyn (Homo sapiens), sequence (P06241 2-537 limits assumed): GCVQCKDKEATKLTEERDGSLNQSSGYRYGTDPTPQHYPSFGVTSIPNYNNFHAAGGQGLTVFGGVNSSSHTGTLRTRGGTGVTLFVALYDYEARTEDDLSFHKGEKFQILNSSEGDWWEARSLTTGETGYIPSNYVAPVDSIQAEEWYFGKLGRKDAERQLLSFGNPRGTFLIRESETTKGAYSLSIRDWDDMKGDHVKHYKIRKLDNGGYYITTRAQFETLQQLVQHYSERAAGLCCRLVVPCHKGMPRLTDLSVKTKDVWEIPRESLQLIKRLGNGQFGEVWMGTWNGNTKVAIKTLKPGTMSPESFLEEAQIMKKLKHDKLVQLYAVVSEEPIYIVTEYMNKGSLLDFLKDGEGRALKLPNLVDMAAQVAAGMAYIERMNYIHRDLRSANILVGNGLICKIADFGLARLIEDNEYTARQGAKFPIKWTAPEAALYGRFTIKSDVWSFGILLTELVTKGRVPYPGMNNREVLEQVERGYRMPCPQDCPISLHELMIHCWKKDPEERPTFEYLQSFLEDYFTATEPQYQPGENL
The target in assay [17] is LIM domain kinase 1 (Homo sapiens) (UniProt P53667). The experiment in a line: Selectivity interaction (KinomeScan (DiscoverX)) EUB0000595a LIMK1. The settings on record: at 10 µM.

Ribosomal protein S6 kinase alpha-5 (Homo sapiens), sequence (O75582 whole entry, looked up): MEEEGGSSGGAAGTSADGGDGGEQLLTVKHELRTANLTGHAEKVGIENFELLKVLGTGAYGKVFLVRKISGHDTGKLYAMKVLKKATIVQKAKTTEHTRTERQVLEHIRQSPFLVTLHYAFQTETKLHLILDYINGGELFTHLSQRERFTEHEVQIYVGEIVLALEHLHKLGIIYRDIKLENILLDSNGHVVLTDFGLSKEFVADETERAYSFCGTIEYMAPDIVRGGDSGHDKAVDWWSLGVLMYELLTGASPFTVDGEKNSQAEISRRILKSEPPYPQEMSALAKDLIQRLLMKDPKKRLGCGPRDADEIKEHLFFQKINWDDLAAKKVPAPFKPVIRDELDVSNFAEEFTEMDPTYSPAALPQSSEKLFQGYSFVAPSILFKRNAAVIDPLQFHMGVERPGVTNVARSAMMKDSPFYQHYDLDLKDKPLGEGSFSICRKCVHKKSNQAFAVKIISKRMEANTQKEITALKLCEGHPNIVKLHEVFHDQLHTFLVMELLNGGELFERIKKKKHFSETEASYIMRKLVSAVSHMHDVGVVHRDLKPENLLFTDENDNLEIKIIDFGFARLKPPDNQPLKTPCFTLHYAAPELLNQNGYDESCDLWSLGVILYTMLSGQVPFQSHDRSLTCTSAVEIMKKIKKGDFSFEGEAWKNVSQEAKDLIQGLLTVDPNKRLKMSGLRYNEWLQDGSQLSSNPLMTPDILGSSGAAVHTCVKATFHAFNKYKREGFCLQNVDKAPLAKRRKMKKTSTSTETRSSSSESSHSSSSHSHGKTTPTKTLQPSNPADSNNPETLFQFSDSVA

As to `Cc1cc([C@@H](C)Nc2ccccc2C(=O)O)c2nc(N3CCOCC3)cc(=O)n2c1` [AZD-6482], the % of control in [1] turned out to be 96%.

On to `O=C(NOC[C@H](O)CO)c1ccc(F)c(F)c1Nc1ccc(I)cc1F`, for which the % of control in assay [2] and in [3] was 100% throughout.

Compound `COc1cc(N(C)c2ccnc3ccc(C(F)(F)F)cc23)cc(OC)c1OC` yielded a % binding in [4] of 93%.

For `CN(C)CCOc1ccc(-c2nc(-c3ccncc3)c(-c3ccc4c(c3)CC/C4=N\O)[nH]2)cc1`, in assay [5], the % of control is 75%.

`Nc1cnc(N2CCc3cc(S(=O)(=O)Nc4c(F)cc(Cl)cc4F)cc(N4CCCC4=O)c32)nc1` [TP-020n] yielded a % of control in [6] of 100%.

Regarding `CC[C@@H]1[C@H](F)C(=O)N[C@@H]1COc1nccc2cc(C(N)=O)c(OC)cc12` [ZIMLOVISERTIB], the % of inhibition was 15.1% in assay [7] (at 0.01 µM); -11.7% in assay [7] (at 0.04 µM); -29.6% in assay [7] (at 0.2 µM); -46.2% in [7] (at 1 µM); -40.1% in assay [7] (at 5 µM); 7.24% in assay [8].

On to `Cc1cnc(Nc2ccc(F)cc2Cl)nc1-c1c[nH]c(C(=O)N[C@H](CO)c2cccc(Cl)c2)c1`, for which the % of inhibition in assay [9] came to 0%; in assay [10], 10%; in assay [11], 7%.

Consider `C=CC(=O)Nc1cccc(C(=O)Nc2ccc(Nc3cc(-c4[nH]c(SC)nc4C)ccn3)cc2)c1`, for which the % of control in [12] (at 1 µM) turned out to be 65%; in assay [12] (at 5 µM) it was 47%.

Take `Cc1cc(CN)cc(C)c1-c1ncn(C)c1-c1cncn1C`: the dTM is -0.53 K in assay [13] and -2.29 K in assay [14].

As for `O[C@H]1CC[C@H](Nc2ncc3nc(Nc4c(F)cc(F)cc4F)n([C@H]4CCOC4)c3n2)CC1`, in assay [15], the % of control came out at 100%.

With `Cc1ccc(-c2ccc3c(ccc4sc5c(c43)NC[C@@H](C)NC5=O)n2)cn1`, in [16], the % of inhibition came to 24%.

For `COCC(=O)NC/C=C/c1ccc2ncnc(Nc3ccc(Oc4ccc(C)nc4)c(C)c3)c2c1` [CP-724714], in assay [17], the % of control came out at 93%.

Source of the values: ChEMBL document CHEMBL5465560, “Selectivity Literature for EUbOPEN Chemogenomic Library” (2024).
